From patent US20150111852A1, “1-Di(sec-butyl)-phosphinoyl-pentane (dapa-2-5) as a topical agent” (priority 2013, published 2015)

Experiments:
[1] = HPLC content of DAPA-2-5 recovered from disintegrated prototype tablets; format: physicochemical
Description: A high pressure liquid chromatography [HPLC] method was developed for analysis of DAPA-2-5 in aqueous solution. The chromatographic conditions were: Column: Waters XTerra RP18, 150×4.6 mm, 3.5 μm, Column temperature: 40° C., Mobile phase : 0.1% Tetrabutyl ammonium and Tri fluro acetic acid in 900mL water and 100 mL Acetonitrile, Flow: 1.0 mUmin, Diluent : Water, Wavelength: 226 nm, Injection Volume: 100 μL, Run time: 10 min, Standard Preparation: 0.75 mg/mL of DAPA-2-5 in water. Sample Preparation: Equivalent to 0.75 mg/mL of DAPA-2-5 in water. Prototype tablets containing DAPA-2-5 were disintegrated and the content of DAPA-2-5 measured. […] It is likely that the non-eluted DAPA-2-5 remains tightly bound to sites on the Neusilin US2.

[2] = biological target: T1, ASIC3 (acid-sensing) (Homo sapiens, UniProt Q9UHC3); experiment: Patch-clamp in transfected cells, ASIC3; format: cell-based; conditions: DAPA-2-5 at 5 μM; positive control amiloride
T1 construct: expressed in transfected cells
T1 sequence (Q9UHC3 1-531): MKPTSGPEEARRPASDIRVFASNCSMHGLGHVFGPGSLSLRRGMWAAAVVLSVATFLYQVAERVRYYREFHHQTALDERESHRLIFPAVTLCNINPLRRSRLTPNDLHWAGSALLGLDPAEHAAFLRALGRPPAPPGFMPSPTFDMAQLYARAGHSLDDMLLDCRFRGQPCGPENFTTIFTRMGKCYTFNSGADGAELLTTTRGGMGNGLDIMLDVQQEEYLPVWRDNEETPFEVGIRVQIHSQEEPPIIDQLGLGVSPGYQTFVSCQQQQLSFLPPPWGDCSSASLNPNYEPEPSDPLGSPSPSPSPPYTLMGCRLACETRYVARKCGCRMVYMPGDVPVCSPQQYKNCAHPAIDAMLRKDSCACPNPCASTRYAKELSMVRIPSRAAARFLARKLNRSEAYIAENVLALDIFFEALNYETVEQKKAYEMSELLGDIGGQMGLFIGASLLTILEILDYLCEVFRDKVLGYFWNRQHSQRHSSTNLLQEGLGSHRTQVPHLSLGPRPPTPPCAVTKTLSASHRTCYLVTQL

[3] = tested on: capsaicin-induced cough; experiment: Guinea pig cough model, capsaicin mist; format: in vivo; conditions: capsaicin 0.1 mM mist, identical design
Description: This study was repeated with an identical design, but using capsaicin 0.1 mM mist as the stimulus.

Structure (SMILES): CCCCCP(=O)(C(C)CC)C(C)CC (stereo not drawn) [DAPA-2-5, 1-Di(sec-butyl)-phosphinoyl-pentane]
- DAPA-2-5 recovered from the aqueous phase [1]: 86±2%
- agonist or antagonist activity, ASIC3 [2]: No agonist or antagonist activities
- effect on capsaicin-induced coughing [3]: inhibited the capsaiscin-induced coughing
